Test [1] deals with T1, BTK (Homo sapiens (Human), UniProt Q06187). The test can be described thus: In Vitro BTK Kinase Assay: BTK-POLYGAT-LS ASSAY. The class given is biochemical. The following applies: ATP 10 μM, polyGAT 100 nM, BTK 0.25 nM, 30 minutes. As for the experimental part: The purpose of the BTK in vitro assay is to determine compound potency against BTK through the measurement of IC50. […] The BTK kinase reaction was done in a black 96 well plate (costar 3694). For a typical assay, a 24 μL aliquot of a ATP/peptide master mix (final concentration; ATP 10 μM, polyGAT 100 nM) in kinase buffer (10 mM Tris-HCl pH 7.5, 10 mM MgCl2, 200 μM […], 5 mM DTT, 0.01% Triton X-100, and 0.2 mg/ml casein) is added to each well. Next, […] of a 4-fold, 40× compound titration in 100% DMSO solvent is added, followed by adding 15 μL of BTK enzyme mix in 1× kinase buffer (with a final concentration of 0.25 nM). The assay is incubated for 30 minutes before being stopped with […] of a 50 mM EDTA solution. Aliquots (5 μL) of the kinase reaction are transferred to a low volume white 384 well plate (Coming 3674), and […] of a 2× detection buffer (Invitrogen PV3574, with 4 nM Tb-PY20 antibody, Invitrogen PV3552) is added. The plate is covered and incubated for 45 minutes at room temperature. Time resolved fluorescence (TRF) on Molecular Devices M5 (332 nm excitation; 488 nm emission; 518 nm fluorescein emission) is measured.

The target in test [2] is T1, BTK. The test is described as follows: In Vitro PD Assay in Human Whole Blood (pBTK assay). The class given is cell-based. The following applies: 37° C. for 30 min, 50% inhibition of ECL signal. As for the experimental part: Human heparinized venous blood was purchased from Bioreclamation, Inc. or SeraCare Life Sciences and shipped overnight. Whole blood was aliquoted into 96-well plate and “spiked” with serial dilutions of test compound in DMSO or with DMSO without drug. The final concentration of DMSO in all wells was 0.1%. The plate was incubated at 37° C. for 30 min. Lysis buffer containing protease and phosphatase inhibitors was added to the drug-containing samples and one of the DMSO-only samples (+PPi, high control), while lysis buffer containing protease inhibitors was added to the other DMSO-only samples (−PPi, low control). All of the lysed whole blood samples were subjected to the total BTK capture and phosphotyrosine detection method described in US20160311802, incorporated herein by reference.

Structures are written as SMILES.

T1 sequence (Q06187 whole entry): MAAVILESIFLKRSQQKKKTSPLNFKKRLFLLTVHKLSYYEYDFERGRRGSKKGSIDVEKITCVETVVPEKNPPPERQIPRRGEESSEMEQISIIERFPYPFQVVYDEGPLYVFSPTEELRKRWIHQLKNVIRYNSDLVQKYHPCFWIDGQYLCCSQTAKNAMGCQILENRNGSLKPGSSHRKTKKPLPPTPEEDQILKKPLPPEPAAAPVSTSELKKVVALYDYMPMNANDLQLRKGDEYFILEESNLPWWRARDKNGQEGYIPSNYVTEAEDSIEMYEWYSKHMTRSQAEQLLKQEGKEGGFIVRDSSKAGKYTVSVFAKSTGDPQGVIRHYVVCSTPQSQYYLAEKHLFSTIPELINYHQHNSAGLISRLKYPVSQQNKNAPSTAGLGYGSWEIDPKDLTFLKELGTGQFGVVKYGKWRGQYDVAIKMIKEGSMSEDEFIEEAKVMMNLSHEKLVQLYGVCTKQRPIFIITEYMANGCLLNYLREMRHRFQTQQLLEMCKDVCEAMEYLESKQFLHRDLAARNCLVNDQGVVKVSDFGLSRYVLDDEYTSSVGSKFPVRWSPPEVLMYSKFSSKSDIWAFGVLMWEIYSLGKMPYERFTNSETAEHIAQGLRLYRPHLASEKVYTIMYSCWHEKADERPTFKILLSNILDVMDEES

Turning to `CC(C)(C)c1ncc(C(=O)NCc2ccc(-c3ccnc(NC(=O)C4CC4)c3)c(F)c2C2CC2)o1` [Compound 30, 2-(tert-butyl)-N-(4-(2-(cyclopropanecarboxamido)pyridin-4-yl)-2-cyclopropyl-3-fluorobenzyl)oxazole-5-carboxamide], the IC50 in test [1] was 1 to 10 nM; in test [2], more than 10000 nM.
In the case of `CC(C)(C)c1noc(C(=O)N[C@@H]2CCCCc3cc(-c4ccnc(NC(=O)[C@@H]5CC56CCC6)c4)ccc32)n1` [Compound 42, 3-(tert-butyl)-N-((R)-2-(2-((R)-spiro[2.3]hexane-1-carboxamido)pyridin-4-yl)-6,7,8,9-tetrahydro-5H-benzo[7]annulen-5-yl)-1,2,4-oxadiazole-5-carboxamide], the IC50 in test [1] is not above 1 nM; in test [2], 500 to 10000 nM.
On to `Cc1cc(-c2ccnc(NC(=O)C3CC3)c2)ccc1[C@@H](C)NC(=O)c1nc(C(C)(C)C)no1` [Compound 93, (R)-3-(tert-butyl)-N-(1-(4-(2-(cyclopropanecarboxamido)pyridin-4-yl)-2-methylphenyl)ethyl)-1,2,4-oxadiazole-5-carboxamide], for which the IC50 is not above 1 nM in test [1] and 100 to 500 nM in test [2].
The matching figures for `CC(C)(C)c1nc(C(=O)NCc2ccc(-c3ccnc(NC(=O)C4CC4)c3)cc2C(F)(F)F)no1` [Compound 16, 5-(tert-butyl)-N-(4-(2-(cyclopropanecarboxamido)pyridin-4-yl)-2-(trifluoromethyl)benzyl)-1,2,4-oxadiazole-3-carboxamide]: not above 1 nM and 100 to 500 nM.
In the same order, the values of `Cc1cc(-c2cc(NC(=O)C3CC3)ncc2C(F)(F)F)ccc1CNC(=O)c1noc(C(C)(C)C)n1` [Compound 26, 5-(tert-butyl)-N-(4-(2-(cyclopropanecarboxamido)-5-(trifluoromethyl)pyridin-4-yl)-2-methylbenzyl)-1,2,4-oxadiazole-3-carboxamide] are 1 to 10 nM and more than 10000 nM.
Consider `Cc1cc(-c2cc(NC(=O)C3CC3)ncc2F)ccc1[C@@H](C)NC(=O)c1noc(C(C)(C)C)n1` [Compound 20, (R)-5-(tert-butyl)-N-(1-(4-(2-(cyclopropanecarboxamido)-5-fluoropyridin-4-yl)-2-methylphenyl)ethyl)-1,2,4-oxadiazole-3-carboxamide], for which the figures for the IC50 in test [1] and in test [2] were not above 1 nM and not above 100 nM, respectively.
In the same order, the values of `CC(C)(C)c1noc(C(=O)N[C@@H]2CCCCc3cc(-c4ccnc(NC(=O)[C@@H]5C[C@H]5C(F)(F)F)c4)ccc32)n1` [Compound 52, 3-(tert-butyl)-N-((R)-2-(2-((1R,2R)-2-(trifluoromethyl)cyclo-propane-1-carboxamido)pyridin-4-yl)-6,7,8,9-tetrahydro-5H-benzo[7]annulen-5-yl)-1,2,4-oxadiazole-5-carboxamide] are not above 1 nM and 500 to 10000 nM.
For `Cc1cc(-c2ccnc(NC(=O)[C@@H]3C[C@H]3C)c2)ccc1CNC(=O)c1noc(C(C)(C)C)n1` [Compound 6, 5-(tert-butyl)-N-(2-methyl-4-(2-((1R,2R)-2-methylcyclopropane-1-carboxamido)pyridin-4-yl)benzyl)-1,2,4-oxadiazole-3-carboxamide], the IC50 in test [1] is not above 1 nM; in test [2], not above 100 nM.
The matching figures for `Cc1cc(-c2ccnc(NC(=O)C3CC3)c2)ccc1[C@@H](C)NC(=O)c1noc(C(C)(C)C)n1` [Compound 19, (R)-5-(tert-butyl)-N-(1-(4-(2-(cyclopropanecarboxamido)pyridin-4-yl)-2-methylphenyl)ethyl)-1,2,4-oxadiazole-3-carboxamide]: not above 1 nM and not above 100 nM.
As to `Cc1cc(-c2cc(NC(=O)C3CC3)ncc2Cl)ccc1CNC(=O)c1noc(C(C)(C)C)n1` [Compound 7, 5-(tert-butyl)-N-(4-(5-chloro-2-(cyclopropanecarboxamido)pyridin-4-yl)-2-methylbenzyl)-1,2,4-oxadiazole-3-carboxamide], the IC50 in test [1] was not above 1 nM; in test [2], 100 to 500 nM.
The matching figures for `C[C@@H](NC(=O)c1noc(C(C)(C)C)n1)c1ccc(-c2ccnc(NC(=O)C3CC3)c2)cc1C(F)(F)F` [Compound 78, (R)-5-(tert-butyl)-N-(1-(4-(2-(cyclopropanecarboxamido)pyridin-4-yl)-2-(trifluoromethyl)phenyl)ethyl)-1,2,4-oxadiazole-3-carboxamide]: not above 1 nM and 100 to 500 nM.
Turning to `Cc1cc(-c2ccnc(NC(=O)C3CC3)c2)ccc1CNC(=O)c1ncc(C(C)(C)C)o1` [Compound 98, 5-(tert-butyl)-N-(4-(2-(cyclopropanecarboxamido)pyridin-4-yl)-2-methylbenzyl)oxazole-2-carboxamide], the IC50 in test [1] lay in the range of 1 to 10 nM; in test [2], 500 to 10000 nM.
On to `CC(C)(C)c1noc(C(=O)N[C@@H]2CCCCc3cc(-c4ccnc(NC(=O)[C@@H]5[C@@H]6COC[C@@H]65)c4)ccc32)n1` [Compound 46, N-((R)-2-(2-((1R,5S,6s)-3-oxabicyclo[3.1.0]hexane-6-carboxamido)pyridin-4-yl)-6,7,8,9-tetrahydro-5H-benzo[7]annulen-5-yl)-3-(tert-butyl)-1,2,4-oxadiazole-5-carboxamide], for which the results for the IC50 in test [1] and in test [2] were not above 1 nM and 500 to 10000 nM, respectively.
The matching figures for `CC(C)(C)c1noc(C(=O)N[C@@H]2CCCCc3cc(-c4ccnc(NC(=O)[C@@H]5CC5(C)C)c4)ccc32)n1` [Compound 45, 3-(tert-butyl)-N-((R)-2-(2-((R)-2,2-dimethylcyclopropane-1-carboxamido)pyridin-4-yl)-6,7,8,9-tetrahydro-5H-benzo[7]annulen-5-yl)-1,2,4-oxadiazole-5-carboxamide]: 1 to 10 nM and more than 10000 nM.
The matching figures for `Cc1cc(-c2ccnc(NC(=O)C3CC3)c2)c(F)cc1CNC(=O)c1nc(C(C)(C)C)no1` [Compound 12, 3-(tert-butyl)-N-(4-(2-(cyclopropanecarboxamido)pyridin-4-yl)-5-fluoro-2-methylbenzyl)-1,2,4-oxadiazole-5-carboxamide]: not above 1 nM and 100 to 500 nM.
The matching figures for `CC(C)(C)c1noc(C(=O)N[C@@H]2CCN(CC(F)(F)F)Cc3cc(-c4ccnc(NC(=O)C5CC5)c4)ccc32)n1` [Compound 92, (R)-3-(tert-butyl)-N-(8-(2-(cyclopropanecarboxamido)pyridin-4-yl)-2-(2,2,2-trifluoroethyl)-2,3,4,5-tetrahydro-1H-benzo[c]azepin-5-yl)-1,2,4-oxadiazole-5-carboxamide]: not above 1 nM and 100 to 500 nM.
For `Cc1cc(-c2ccnc(NC(=O)[C@H]3C[C@@H]3C)c2)ccc1CNC(=O)c1noc(C(C)(C)C)n1` [Compound 5, 5-(tert-butyl)-N-(2-methyl-4-(2-((1S,2S)-2-methylcyclopropane-1-carboxamido)pyridin-4-yl)benzyl)-1,2,4-oxadiazole-3-carboxamide], the IC50 in test [1] was not above 1 nM; in test [2] it was not above 100 nM.
Take `Cc1c(CNC(=O)c2nc(C(C)(C)C)no2)ccc(-c2ccnc(NC(=O)C3CC3)c2)c1F` [Compound 94, 3-(tert-butyl)-N-(4-(2-(cyclopropanecarboxamido)pyridin-4-yl)-3-fluoro-2-methylbenzyl)-1,2,4-oxadiazole-5-carboxamide]: the IC50 in test [1] was not above 1 nM; in test [2], not above 100 nM.
Regarding `Cc1cc(-c2ccnc(NC(=O)C3CC3)c2)ccc1CNC(=O)c1noc(C(C)(C)CF)n1` [Compound 41, N-(4-(2-(cyclopropanecarboxamido)pyridin-4-yl)-2-methylbenzyl)-5-(1-fluoro-2-methylpropan-2-yl)-1,2,4-oxadiazole-3-carboxamide], the IC50 was not above 1 nM in test [1] and 500 to 10000 nM in test [2].
Turning to `Cc1c(CNC(=O)c2noc(C(C)(C)C)n2)ccc(-c2ccnc(NC(=O)C3CC3)c2)c1F` [Compound 11, 5-(tert-butyl)-N-(4-(2-(cyclopropanecarboxamido)pyridin-4-yl)-3-fluoro-2-methylbenzyl)-1,2,4-oxadiazole-3-carboxamide], the IC50 in test [1] is not above 1 nM; in test [2], not above 100 nM.
In the same order, the values of `Cc1cc(-c2ccnc(NC(=O)[C@@H]3C[C@H]3F)c2)ccc1CNC(=O)c1noc(C(C)(C)C)n1` [Compound 38, 5-(tert-butyl)-N-(4-(2-((1S,2R)-2-fluorocyclopropane-1-carboxamido)pyridin-4-yl)-2-methylbenzyl)-1,2,4-oxadiazole-3-carboxamide] are not above 1 nM and 500 to 10000 nM.

The record behind these values is patent US12240838B2, “Inhibiting agents for Bruton's tyrosine kinase” (BIOGEN MA INC., priority 2019, dated 2025).
